Measured values taken from ChEMBL document CHEMBL1201862, “PubChem BioAssay data set” (2004).
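Values below derive from 48-hour exposures of cells grown in 96-well plates, with endpoints linearly interpolated between the two concentrations bracketing the appropriate inhibition level. GI50 = concentration required for 50% inhibition of growth.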 Calls of active or inactive are those of the source. No stated cut-off is given here; in the data, active = GI50 up to about 1.1 µM and inactive = higher.

Tests used:
Test in all cases: growth of human tumour cells (NCI), 48 h
[1] = system: SF-268
[2] = system: A498
[3] = system: HT-29
[4] = system: U-251
[5] = system: EKVX
[6] = system: RPMI-8226
[7] = system: SNB-19
[8] = system: UACC-257
[9] = system: MOLT-4
[10] = system: UACC-62
[11] = system: K562
[12] = system: SN12C
[13] = system: HOP-62
[14] = system: OVCAR-4
[15] = system: M14
[16] = system: SK-MEL-5
[17] = system: ACHN
[18] = system: 786-0

Compound	GI50 [1]	GI50 [2]	GI50 [3]	GI50 [4]	GI50 [5]	GI50 [6]	GI50 [7]	GI50 [8]	GI50 [9]	GI50 [10]	GI50 [11]	GI50 [12]	GI50 [13]	GI50 [14]	GI50 [15]	GI50 [16]	GI50 [17]	GI50 [18]
Cc1cc(N(CCC#N)CCC#N)ccc1CC1N=C(c2ccccc2)OC1=O (stereo not drawn)	> 100 µM (inactive)	> 100 µM (inactive)	> 100 µM (inactive)	> 100 µM (inactive)	> 100 µM (inactive)	> 100 µM (inactive)	> 100 µM (inactive)	> 100 µM (inactive)	> 100 µM (inactive)	> 100 µM (inactive)	> 100 µM (inactive)	> 100 µM (inactive)	> 100 µM (inactive)	> 100 µM (inactive)	> 100 µM (inactive)	> 100 µM (inactive)	> 100 µM (inactive)	> 100 µM (inactive)
Cc1ccc(C)c2c1C1CCCCC3(OCCCO3)C21O (stereo not drawn)	> 100 µM (inactive)	> 100 µM (inactive)	> 100 µM (inactive)	> 100 µM (inactive)		> 100 µM (inactive)	> 100 µM (inactive)	> 100 µM (inactive)	> 100 µM (inactive)	> 100 µM (inactive)	> 100 µM (inactive)	> 100 µM (inactive)	> 100 µM (inactive)	> 100 µM (inactive)	> 100 µM (inactive)	> 100 µM (inactive)	> 100 µM (inactive)	> 100 µM (inactive)
CCCCCC(=O)OC[n+]1ccc2c(C)c3[nH]c4ccccc4c3c(C)c2c1	0.796 µM (active)	1.35 µM (inactive)	0.482 µM (active)	0.656 µM (active)	0.628 µM (active)	0.288 µM (active)		1.57 µM (inactive)	0.327 µM (active)	1.56 µM (inactive)		0.489 µM (active)	1.24 µM (inactive)	1.1 µM (active)	1.42 µM (inactive)	1.51 µM (inactive)	0.738 µM (active)	0.405 µM (active)
CN(C)C(=O)Oc1c(-c2ccccc2)c(=O)n2c3ccccc3n3c(=O)n(C)c(=O)c1c23	> 100 µM (inactive)	> 100 µM (inactive)	> 100 µM (inactive)	> 100 µM (inactive)	> 100 µM (inactive)	> 100 µM (inactive)	> 100 µM (inactive)	> 100 µM (inactive)	> 100 µM (inactive)	> 100 µM (inactive)		> 100 µM (inactive)	> 100 µM (inactive)	> 100 µM (inactive)	> 100 µM (inactive)	> 100 µM (inactive)	> 100 µM (inactive)	> 100 µM (inactive)
CC(C)(Oc1ccc(C(=O)c2ccc(Cl)cc2)cc1Cl)C(=O)Nc1c(Cl)cccc1Cl	> 100 µM (inactive)	> 100 µM (inactive)	> 100 µM (inactive)	> 100 µM (inactive)	> 100 µM (inactive)	> 100 µM (inactive)	> 100 µM (inactive)	> 100 µM (inactive)	67.9 µM (inactive)	> 100 µM (inactive)	5.64 µM (inactive)		> 100 µM (inactive)		> 100 µM (inactive)	20 µM (inactive)		> 100 µM (inactive)
O=c1sc(-c2nc3ccccc3[nH]2)c(/N=C/c2ccccc2)n1-c1ccccc1	91.4 µM (inactive)	> 100 µM (inactive)	> 100 µM (inactive)	68.7 µM (inactive)	> 100 µM (inactive)	> 100 µM (inactive)	53.7 µM (inactive)	> 100 µM (inactive)	> 100 µM (inactive)	52.5 µM (inactive)	75 µM (inactive)	73.3 µM (inactive)	27.9 µM (inactive)	6.12 µM (inactive)	48.9 µM (inactive)	29.9 µM (inactive)	65.2 µM (inactive)	42.9 µM (inactive)
CC(=O)c1ccc(N2C(=O)C3c4[nH]c5ccccc5c4C4CCC(C(C)(C)C)CC4C3C2=O)cc1 (stereo not drawn)	17.3 µM (inactive)	22.5 µM (inactive)	17.3 µM (inactive)	19.5 µM (inactive)	30.5 µM (inactive)	23.3 µM (inactive)	62.2 µM (inactive)	35.2 µM (inactive)	30.1 µM (inactive)	21.1 µM (inactive)	35.7 µM (inactive)	18.5 µM (inactive)	19.5 µM (inactive)	30.9 µM (inactive)	23.9 µM (inactive)	25.6 µM (inactive)	28.3 µM (inactive)	18.6 µM (inactive)
Cc1c(C(=O)CC(=O)C(=O)Nc2cccc(C(F)(F)F)c2)[n+]([O-])c2ccccc2[n+]1[O-]	3.67 µM (inactive)	20.7 µM (inactive)	3.79 µM (inactive)	4.03 µM (inactive)	5.07 µM (inactive)	3.07 µM (inactive)	4.88 µM (inactive)	2.56 µM (inactive)	2.71 µM (inactive)	2.76 µM (inactive)	3.8 µM (inactive)	3.37 µM (inactive)	23.6 µM (inactive)	2.42 µM (inactive)	3.37 µM (inactive)	3.57 µM (inactive)	3.15 µM (inactive)	5.79 µM (inactive)
O=C(/C=C/c1ccco1)N1CCN(Cc2ccccc2)CC1	> 100 µM (inactive)	> 100 µM (inactive)	> 100 µM (inactive)	> 100 µM (inactive)	> 100 µM (inactive)	> 100 µM (inactive)	> 100 µM (inactive)	> 100 µM (inactive)	> 100 µM (inactive)	> 100 µM (inactive)		> 100 µM (inactive)	> 100 µM (inactive)	> 100 µM (inactive)	> 100 µM (inactive)	> 100 µM (inactive)	> 100 µM (inactive)	> 100 µM (inactive)
CN(C)c1ccc(/C=C/c2ccc(/C=C/c3ccc(N(C)C)cc3)cc2)cc1	> 100 µM (inactive)	> 100 µM (inactive)	> 100 µM (inactive)	> 100 µM (inactive)	> 100 µM (inactive)	63.8 µM (inactive)	78.5 µM (inactive)	90.4 µM (inactive)	> 100 µM (inactive)	87.3 µM (inactive)	75.5 µM (inactive)	> 100 µM (inactive)		> 100 µM (inactive)	> 100 µM (inactive)	35.1 µM (inactive)	57.8 µM (inactive)	> 100 µM (inactive)
CC1C(=O)O[C@H]2C1CC[C@@]1(C)[C@H](O)CC[C@@]13C[C@]2(O)OO3 (stereo partly drawn)	> 100 µM (inactive)	> 100 µM (inactive)	> 100 µM (inactive)	> 100 µM (inactive)		> 100 µM (inactive)	> 100 µM (inactive)	> 100 µM (inactive)	> 100 µM (inactive)	> 100 µM (inactive)	> 100 µM (inactive)	> 100 µM (inactive)	> 100 µM (inactive)	> 100 µM (inactive)	> 100 µM (inactive)	> 100 µM (inactive)	> 100 µM (inactive)	> 100 µM (inactive)
